The results in this text go back to patent US20080021056A1, “Fused, Tricyclic Sulfonamide Inhibitors of Gamma Secretase” (priority 2006, published 2008).

This test deals with T1, gamma-secretase (Homo sapiens, UniProt P49768).
T1 construct: partially purified extract of IMR-32 cell membranes as the gamma-secretase enzyme preparation; endogenous in cells; host or cells: IMR-32 cell membranes (partially purified extract)
As to the kind of experiment: Gamma-secretase APP enzyme assay. Particulars: cleavage of MBP-C125 Swe substrate at the Aβ40 site; partially purified extract of IMR-32 cell membranes; ELISA. The format is biochemical. The source says: The gamma-secretase APP enzyme assay was designed to measure the specific proteolytic cleavage of an APP substrate (MBP-C125 Swe fusion protein) at the Aβ40 site. The assay used a partially purified extract of IMR-32 cell membranes as the gamma-secretase enzyme preparation and a recombinant fusion protein containing the C-terminal 125 amino acids of the Swedish variant of the APP (MBP-C125swe) as the substrate. This assay involved two steps beginning with the enzymatic reaction generating a cleavage product that was captured with an immobilized antibody specific for the neo-epitope Aβ40 site. The captured cleavage product was then detected in a sandwich ELISA assay with a biotinylated reporter antibody that is specific to Aβ (17-28). Streptavidin-linked alkaline phosphatase was then added that would generate a fluorescent signal proportional to the amount of cleavage product. This assay was used to discover small molecule inhibitors of gamma-secretase.
Briefly, a 149 mg/ml solution of BIGCHAP detergent was made with water at 42° C. and then rotated for 30 minutes at the same temperatures This warmed solution of BigCHAPS (N,N-Bis(3-D-gluconamidopropyl)cholamide) detergent was used to dissolve Brain Extract Type-V (lipid containing a minimum of 40% phosphatidylethanolamine) from Signa (St. Louis, Mo.) to a concentration of 8 mg/ml. This solution containing BigCHAPS and lipid at 8 mg/ml is then diluted to 0.53 mg/ml lipid with a pre-warmed solution of Hepes and sodium chloride. This final solution containing Hepes buffer, sodium chloride, BigCHAPS detergent and lipid is used to create working solutions of both gamma-secretase (25 Units) and the MBP-C125 substrate (0.05 mg/ml).
Gamma-secretase was then added to a 96-well micro-titre plate and then incubated with various concentrations of inhibitor for 30 minutes at 37° C. MBPC125 substrate was then added to initiate the reaction that would run for two hours at 37° C. The reaction was quenched with the addition of SDS to a final concentration of 0.1% and then 100 μl of the reaction mixture was transferred to a capture ELISA plate and incubated overnight at 4° C. Detection of the cleavage product was performed using a standard sandwich ELISA assay and quantified using a six point standard curve.
The term IC50 denotes the midpoint of a concentration-inhibition curve. Low readings indicate inhibition by little substance, high ones a need for much substance. `CC1c2cn[nH]c2-c2ccccc2N1S(=O)(=O)c1cccnc1` (stereo not drawn) [4-methyl-5-(pyridin-3-ylsulfonyl)-4,5-dihydro-1H-pyrazolo[4,3-c]quinoline] showed a half-maximal inhibitory concentration (IC50) of 101 to 500 nM.
The figure for `O=S(=O)(c1ccc(Cl)cc1)N1Cc2cn[nH]c2-n2ccnc21` [5-(4-chlorophenylsulfonyl)-4,5-dihydro-1H-imidazo[1,2-a]pyrazolo[4,3-e]pyrimidine] is 101 to 500 nM.
The figure for `O=S(=O)(c1ccc(Cl)cc1)N1c2ccccc2-c2n[nH]cc2C1C(F)(F)F` (stereo not drawn) [5-(4-chlorophenylsulfonyl)-4-(trifluoromethyl)-4,5-dihydro-2H-pyrazolo[4,3-c]quinoline] is 0.1 to 100 nM.
The figure for `O=S(=O)(c1ccc(Cl)cc1)N1c2nccn2-c2[nH]ncc2C1C1CC1` (stereo not drawn) [5-(4-chlorophenylsulfonyl)-4-cyclopropyl-4,5-dihydro-1H-imidazo[1,2-a]pyrazolo[4,3-e]pyrimidine] is 101 to 500 nM.
`O=S(=O)(c1ccc(Cl)cc1)N1c2ccccc2-c2n[nH]cc2C1C1CC1` (stereo not drawn) [5-(4-chlorophenylsulfonyl)-4-cyclopropyl-4,5-dihydro-2H-pyrazolo[4,3-c]quinoline] came in with a half-inhibitory concentration (IC50) of 0.1 to 100 nM.
As to `CCC1c2cn[nH]c2-c2ccccc2N1S(=O)(=O)c1ccc(Cl)cc1` (stereo not drawn) [5-(4-chlorophenylsulfonyl)-4-ethyl-4,5-dihydro-1H-pyrazolo[4,3-c]quinoline], the half-maximal inhibitory concentration (IC50) lay within 0.1 to 100 nM.
As to `CC(C)C1c2c[nH]nc2-c2ccccc2N1S(=O)(=O)c1ccc(Cl)cc1` (stereo not drawn) [5-(4-chlorophenylsulfonyl)-4-isopropyl-4,5-dihydro-2H-pyrazolo[4,3-c]quinoline], the IC50 fell in the range of 0.1 to 100 nM.
Take `CC1c2cn[nH]c2-c2ccc(O)cc2N1S(=O)(=O)c1ccc(Cl)cc1` (stereo not drawn) [5-(4-chlorophenylsulfonyl)-4-methyl-4,5-dihydro-1H-pyrazolo[4,3-c]quinolin-7-ol]: the concentration for half-maximal inhibition (IC50) was in the range of 0.1 to 100 nM.
The figure for `CC1c2c[nH]nc2-c2ccc(OC(=O)N(C)C)cc2N1S(=O)(=O)c1ccc(Cl)cc1` (stereo not drawn) [5-(4-chlorophenylsulfonyl)-4-methyl-4,5-dihydro-1H-pyrazolo[4,3-c]quinolin-7-yl dimethylcarbamate] is 0.1 to 100 nM.
With `CC1c2cn[nH]c2-c2cc(O)c(O)cc2N1S(=O)(=O)c1ccc(Cl)cc1` (stereo not drawn) [5-(4-chlorophenylsulfonyl)-4-methyl-4,5-dihydro-1H-pyrazolo[4,3-c]quinoline-7,8-diol] the figure was 0.1 to 100 nM.
`CC1c2c[nH]nc2-c2cc3c(cc2N1S(=O)(=O)c1ccc(Cl)cc1)OCO3` (stereo not drawn) [5-(4-chlorophenylsulfonyl)-4-methyl-4,5-dihydro-2H-[1,3]dioxolo[4,5-g]pyrazolo[4,3-c]quinoline]: the IC50 is 0.1 to 100 nM.
With `CC1c2c[nH]nc2-c2ccncc2N1S(=O)(=O)c1ccc(Cl)cc1` (stereo not drawn) [5-(4-chlorophenylsulfonyl)-4-methyl-4,5-dihydro-2H-pyrazolo[4,3-c][1,7]naphthyridine] the figure was 0.1 to 100 nM; with `CC1c2c[nH]nc2-c2cccnc2N1S(=O)(=O)c1ccc(Cl)cc1` (stereo not drawn) [5-(4-chlorophenylsulfonyl)-4-methyl-4,5-dihydro-2H-pyrazolo[4,3-c][1,8]naphthyridine], 0.1 to 100 nM.
The figure for `CC1c2c[nH]nc2-c2cc(O)ccc2N1S(=O)(=O)c1ccc(Cl)cc1` (stereo not drawn) [5-(4-chlorophenylsulfonyl)-4-methyl-4,5-dihydro-2H-pyrazolo[4,3-c]quinolin-8-ol] is 0.1 to 100 nM; for `CC1c2c[nH]nc2-c2ccc(F)cc2N1S(=O)(=O)c1ccc(Cl)cc1` (stereo not drawn) [5-(4-chlorophenylsulfonyl)-7-fluoro-4-methyl-4,5-dihydro-2H-pyrazolo[4,3-c]quinoline] it is 0.1 to 100 nM; for `O=c1c2cn[nH]c2c2cc(F)ccc2n1S(=O)(=O)c1ccc(Cl)cc1` [5-(4-chlorophenylsulfonyl)-8-fluoro-1H-pyrazolo[4,3-c]quinolin-4(5H)-one] it is 1000 to 10000 nM.
With `CC1c2c[nH]nc2-c2c(F)cccc2N1S(=O)(=O)c1ccc(Cl)cc1` (stereo not drawn) [5-(4-chlorophenylsulfonyl)-9-fluoro-4-methyl-4,5-dihydro-2H-pyrazolo[4,3-c]quinoline] the figure was 0.1 to 100 nM.
In the case of `O=S(=O)(c1ccc(F)cc1)N1c2ncccc2-c2n[nH]cc2C1C(F)(F)F` (stereo not drawn) [5-(4-fluorophenylsulfonyl)-4-(trifluoromethyl)-4,5-dihydro-2H-pyrazolo[4,3-c][1,8]naphthyridine], the IC50 fell in the range of 0.1 to 100 nM.
In turn, `O=S(=O)(c1ccc(Cl)cn1)N1c2cc(F)c(F)cc2-c2[nH]ncc2C1C1CC1` (stereo not drawn) [5-(5-chloropyridin-2-ylsulfonyl)-4-cyclopropyl-7,8-difluoro-4,5-dihydro-1H-pyrazolo[4,3-c]quinoline] gave an IC50 of 0.1 to 100 nM.
As to `O=S(=O)(c1ccc(Cl)cn1)N1c2ccc(F)cc2-c2n[nH]cc2C1C1CC1` (stereo not drawn) [5-(5-chloropyridin-2-ylsulfonyl)-4-cyclopropyl-8-fluoro-4,5-dihydro-1H-pyrazolo[4,3-c]quinoline], the IC50 was in the range of 0.1 to 100 nM.
Regarding `O=S(=O)(c1ccc(Cl)s1)N1c2cc(F)c(F)cc2-c2n[nH]cc2C1C1CC1` (stereo not drawn) [5-(5-chlorothiophen-2-ylsulfonyl)-4-cyclopropyl-7,8-difluoro-4,5-dihydro-2H-pyrazolo[4,3-c]quinoline], the half-inhibitory concentration (IC50) fell in the range of 0.1 to 100 nM.
With `CC1c2cn[nH]c2-c2cc(F)c(F)cc2N1S(=O)(=O)c1ccc(Cl)s1` (stereo not drawn) [5-(5-chlorothiophen-2-ylsulfonyl)-7,8-difluoro-4-methyl-4,5-dihydro-1H-pyrazolo[4,3-c]quinoline] the figure was 0.1 to 100 nM.
With `O=c1c2cn[nH]c2c2ccccc2n1S(=O)(=O)c1ccc(Cl)cc1` [5-[(4-chlorophenyl)sulfonyl]-1,5-dihydro-4H-pyrazolo[4,3-c]quinolin-4-one] the figure was 101 to 500 nM; with `Cc1n[nH]c2c1CN(S(=O)(=O)c1ccc(Cl)cc1)c1ccccc1-2` [5-[(4-chlorophenyl)sulfonyl]-3-methyl-4,5-dihydro-1H-pyrazolo[4,3-c]quinoline], 1000 to 10000 nM.
The figure for `O=S(=O)(c1ccc(Cl)cc1)N1Cc2c[nH]nc2-c2ccccc21` [5-[(4-chlorophenyl)sulfonyl]-4,5-dihydro-1H-pyrazolo[4,3-c]quinoline] is 0.1 to 100 nM.
Consider `O=S(=O)(c1ccc(Cl)cc1)N1Cc2c(O)n[nH]c2-c2ccccc21` [5-[(4-chlorophenyl)sulfonyl]-4,5-dihydro-1H-pyrazolo{4,3-c]quinolin-3-ol], for which the IC50 was in the range of 1000 to 10000 nM.
With `CC1c2cn[nH]c2-c2ncccc2N1S(=O)(=O)c1ccc(Cl)cc1` (stereo not drawn) [5-[(4-chlorophenyl)sulfonyl]-4-methyl-4,5-dihydro-1H-pyrazolo[4,3-c]-1,5-naphthyridine] the figure was 0.1 to 100 nM.
Molecule `O=S(=O)(c1ccc(Cl)cc1)N1Cc2c[nH]nc2-c2ccc(F)cc21` [5-[(4-chlorophenyl)sulfonyl]-7-fluoro-4,5-dihydro-2H-pyrazolo[4,3-c]quinoline] gave an IC50 of 0.1 to 100 nM.
Take `COc1ccc2c(c1)N(S(=O)(=O)c1ccc(Cl)cc1)C(C)c1c[nH]nc1-2` (stereo not drawn) [5-[(4-chlorophenyl)sulfonyl]-7-methoxy-4-methyl-4,5-dihydro-1H-pyrazolo[4,3-c]quinoline]: the 50% inhibitory concentration (IC50) was in the range of 0.1 to 100 nM.
The figure for `O=S(=O)(c1ccc(Cl)cc1)N1Cc2c[nH]nc2-c2cc(F)ccc21` [5-[(4-chlorophenyl)sulfonyl]-8-fluoro-4,5-dihydro-2H-pyrazolo[4,3-c]quinoline] is 0.1 to 100 nM.
As to `COc1cccc2c1-c1[nH]ncc1C(C)N2S(=O)(=O)c1ccc(Cl)cc1` (stereo not drawn) [5-[(4-chlorophenyl)sulfonyl]-9-methoxy-4-methyl-4,5-dihydro-1H-pyrazolo[4,3-c]quinoline], the half-maximal inhibitory concentration (IC50) is 1000 to 10000 nM.
With `O=S(=O)(c1ccc(Cl)cc1)N1Cc2c[nH]nc2-c2c(F)cccc21` [5-[(4-chlorophenyl}sulfonyl]-9-fluoro-4,5-dihydro-2H-pyrazolo[4,3-c]quinoline] the figure was 0.1 to 100 nM.
`O=S(=O)(c1ncc(Cl)s1)N1c2cc(F)c(F)cc2-c2n[nH]cc2C1C1CC1` (stereo not drawn) [5-chloro-2-(4-cyclopropyl-7,8-difluoro-1H-pyrazolo[4,3-c]quinolin-5(4H)-ylsulfonyl)thiazole]: the IC50 lay within 0.1 to 100 nM.
With `O=S(=O)(c1ccc(C(F)(F)F)cc1)N1c2ccccc2-c2[nH]ncc2C12CC2` [5′-(4-(trifluoromethyl)phenylsulfonyl)-1′,5′-dihydrospiro[cyclopropane-1,4′-pyrazolo[4,3-c]quinoline]] the figure was 0.1 to 100 nM; with `O=S(=O)(c1ccc(Cl)cc1)N1c2ccccc2-c2n[nH]cc2C12CC2` [5′-(4-chlorophenylsulfonyl)-2′,5′-dihydrospiro[cyclopropane-1,4′-pyrazolo[4,3-c]quinoline]], 0.1 to 100 nM.
With `CCC1N(S(=O)(=O)c2ccc(Cl)cc2)c2ccccc2-c2ccnn21` (stereo not drawn) [6-(4-chlorophenylsulfonyl)-5-ethyl-5,6-dihydropyrazolo[1,5-c]quinazoline] the figure was 101 to 500 nM.
